# Test results published in patent US5962516A, “Immunosuppressive compounds and methods” (priority 1999, dated 1999).
# Where a name gives a salt, the structure may show the parent alone.
# What was measured:
# [1] = tested on: mixed lymphocyte reaction (spleen cells from female C57BL/6 mice, stimulated with Balb/C spleen cells); assay: Mixed lymphocyte reaction (MLR) assay; assay type: cell-based, mouse; conditions: 50% suppression of proliferation
# Description: Inhibition of cell proliferation by the subject compounds was assayed in the mixed lymphocyte reaction (MLR) (Bradley, 1980; Mishell, 1980). Spleen cells from female C57BL/6 mice, the "responder" cells, were prepared and co-cultured alone or in the presence of varying concentrations of the test compounds, with irradiated spleen cells prepared from female Balb/C mice, the "stimulator" cells. Prior irradiation of the stimulator cells rendered them unable to proliferate. A sample of the responder cells was also irradiated for use as a control. The non-irradiated responder cells proliferate in the presence of the allogenic stimulator cells. After a 78-hour incubation, tritiated thymidine was added to the mixed cell cultures, and incorporation of the labeled nucleotide into DNA was measured as an index of cell proliferation.
# In this study, the responder cells (R) were spleen cells from female C57BL16 mice, and the stimulator cells (S) were spleen cells from female Balb/C mice 6 to 8 weeks of age (Jackson, Bar Harbor, Me.). The spleens were aseptically removed from the mice and placed into 10 ml of cold HBSS in a sterile petri dish. The spleen was cut in half and gently pressed between the frosted ends of 2 sterile microslides. The cell suspension was then filtered through sterile nylon mesh (Nytex, Tetco #HD-3-85) into a 15 ml conical polypropylene centrifuge tube and centrifuged at 200×g for 10 minutes in a Beckman GPR tabletop centrifuge (GH-3.7 Rotor). Following an additional wash in HBSS, the spleen cells were resuspended in RPMI 1640 medium (Gibco) containing 50 uM 2-mercaptoethanol, 2 mM glutamine, 100 U/ml penicillin, 100 μg/ml streptomycin and 10% heat-inactivated fetal bovine serum.
# The stimulator cells (S) and part of the responder cells (R) were diluted at 10×10^6 cells/ml and irradiated at 20 cGy with a Cesium Irradiator (Department of Radiation Oncology, Stanford University, California) to inhibit proliferation. The irradiated cells were washed once to remove any toxic free radicals and their products resulting from irradiation. The responder cells (R), irradiated stimulator cells (Sx) and irradiated responder cell (Rx) were all diluted to 4×10^6 cells/ml.
# In the assay, 4×10^5 cells of R were cocultured with 4×10^5 cells of Sx in 200 μl of medium in round bottom 96 well tissue culture plates. Fifty micro-liters of test samples at various concentrations were added to the cells. The wells receiving no test samples would get the maximum proliferation. Several controls were used in the assay. The irradiated responder cells (Rx) were also added to the responder cells with and without the test samples. Rx or Sx alone were checked to make sure no proliferation occurred after irradiation. The spontaneous proliferation of R was also measured.
# The culture plates were incubated at 37° C. in a 5% CO2 incubator for four days. The cells were labelled with 1 μCi of (^3 H)-thymidine (Amersham, 49 Ci/mmol) in 20 μl of medium for the last 18 hours. Cells were then harvested and counted. The results were reported as counts per minute (cpm) per well. Percent of suppression and IC50 (concentration of sample producing 50% suppression of proliferation) were used to indicate the suppressive activity of the sample. Sample cpm was calculated as (R+Sx+sample)cpm-(R+Rx+sample)cpm; control cpm was calculated as (R+Sx)cpm-(R+Rx)cpm. Percent suppression of MLR activity was calculated as (1-sample cpm/control cpm)×100. IC50 was determined from percent suppression to indicate the suppressive activity of the sample.
# [2] = tested on: IL-1β action on murine thymocytes; assay: Inhibition of IL-1 action (IL-1 assay): suppression of IL-1β + PHA stimulated murine thymocyte proliferation; assay type: cell-based, mouse (C3H/HeN); conditions: 50% suppression of proliferation, 72 h culture
# Description: The ability of the above compounds to suppress the cell-proliferative effect of IL-1β in vitro (O'Gara, 1990) was examined as described in Example 11. Mouse thymocytes in culture were stimulated with IL-1β in the presence of phytohemagglutinin (PHA) and increasing concentrations of triptolide (control) and triptolide derivatives. The cells were cultured for 72 hours, and during the last 18 hours, incubated with tritiated thymidine. DNA synthesis was assessed by measuring incorporation of radiolabeled thymidine. The results expressed in terms of IC50 (concentration effective to cause 50% suppression of proliferation) are shown in Table 1.
# C3H/HeN mouse thymocytes were prepared and the action of IL-1 together with PHA, which stimulate proliferation of thymocyte, was measured using standard techniques (O'Gara, 1990; Mishell, 1980). Three- to six-week old C3H/HeN male mice (Simonson Laboratory, Gilroy, Calif.) were sacrificed by CO2 inhalation. Thymi were removed, separated from adherent non-thymic tissue, homogenized in Hank's balanced salt solution (HBSS, Gibco) using a glass homogenizer, and centrifuged at 200×g for 10 minutes at 15° C. Following an additional wash in HBSS, the thymocytes were resuspended in RPMI 1640 medium containing 50 uM 2-mercaptoethanol, 2 mM glutamine, 1 mM sodium pyruvate, non-essential amino acids 100 U/ml penicillin, 100 μg/ml streptomycin, and 10% heat-inactivated fetal bovine serum.
# Cells were cultured in round-bottom 96 well microtiter tissue culture plates, 6×10^5 cells per well, in a volume of 100 μl. Recombinant human IL-1β (R & D Systems #201-LB) together with Phytohemagglutinin P (PHA, Pharmacia) were added to the cells in volume of 25 μl per well to achieve a final concentration of 0.08 ng/ml and 10 μg/ml, respectively. Samples were dissolved in DMSO (10 mg/ml), then diluted in culture medium. Twenty five microliters of the test sample was added to each well to achieve the final compound concentrations for each experiment. Cells with PHA together with IL-1 served as controls. The total volume for each well was 150 μl.
# Plates were incubated at 37° C. in a 5% CO2 incubator for 72 hours. Fifty microliters of culture medium containing 0.5 μCi (^3 H)-thymidine (Amersham, 49 Ci/mmol) was added to each well prior to the last 18 hours of incubation. Cells were then harvested and counted. The results were reported as counts per minute (cpm) per 6×10^5 cells.
# The following formula was used to calculate the percent of suppression of IL-1 activity, and IC50 (concentration of sample yielding 50% suppression of proliferation) was used to indicate the suppressive activity of the sample.
# % suppression of IL-1 activity=(1-sample cpm/(IL-1+PHA control
smiles,measurement,setting,value
"CC(C)C12OC1C1OC13C1(C)CCC4=C(COC4=O)C1CC1OC13C2OC(=O)CCC(=O)O (stereo not shown) [YM-276, Triptolide Succinate Lysine Salt]",MLR Assay IC50,[1],0.063 µg/mL
same,IC50,[1]; read-out: MLR Assay IC50,104 nM
same,IL-1 Assay IC50,[2],0.144 µg/mL
same,IC50,[2]; read-out: IL-1 Assay IC50,238 nM
